Reference: US9353088B2, “Crystalline pharmaceutical and methods of preparation and use thereof” (SARcode Bioscience Inc., priority 2009, dated 2016)

Tested on: tester strains
Experiment: In vitro Ames bacterial reverse mutation assay
Format: cell-based
Conditions: presence or absence of microsomal (S9) enzymes
Description: Therefore, the compound of Formula I was judged to be not mutagenic.

CS(=O)(=O)c1cccc(C[C@H](NC(=O)c2c(Cl)cc3c(c2Cl)CCN(C(=O)c2ccc4ccoc4c2)C3)C(=O)O)c1 [Compound of Formula I]
mutagenicity: not mutagenic
